Experiments:
[1] = Volume of distribution in rat at 1 mg/kg, iv; type: ADME, organism-based; settings: in vivo
[2] = Clearance in rat at 1 mg/kg, iv; type: ADME, organism-based; settings: in vivo
[3] = biological target: Beta-1 adrenergic receptor (Homo sapiens) (UniProt P08588); test: Displacement of [3H](-)CGP12177 from recombinant human beta1 adrenergic receptor expressed in HEK293 cells at 10 uM measured after 60 mins by scintillation counting method; type: cell-based
[4] = Cmax in dog at 0.5 mg/kg, iv; type: ADME, organism-based, Canis lupus familiaris; design: dose 0.5 mg/kg, route intravenous; settings: in vivo
[5] = biological target: 5-hydroxytryptamine receptor 2C (Homo sapiens, UniProt P28335); test: Activity at human 5T2C receptor
[6] = biological target: 5-hydroxytryptamine receptor 1D (Homo sapiens, UniProt P28221); test: Activity at human 5HT1D receptor
[7] = biological target: 5-hydroxytryptamine receptor 1B (Homo sapiens, UniProt P28222); test: Activity at human 5HT1B receptor
[8] = Tmax in rat at 1 mg/kg, po; type: ADME, organism-based; settings: in vivo
[9] = biological target: Adenosine receptor A1 (Homo sapiens) (UniProt P30542); test: Displacement of [3H]DPCPX from human adenosine A1 receptor at 10 uM measured after 60 mins by scintillation counting method
[10] = biological target: 5-hydroxytryptamine receptor 1E (Homo sapiens, UniProt P28566); test: Activity at human 5HT1E receptor
[11] = biological target: T1, Metabotropic glutamate receptor 5 (Homo sapiens, UniProt P41594); test: Agonist activity at recombinant human mGlu5 expressed in hamster AV12 cells expressing EAAT1 assessed as increase in intracellular calcium level measured after 24 hrs by FLIPR assay; type: functional, cell-based
[12] = Cmax in rat at 1 mg/kg, po; type: ADME, organism-based; design: dose 1 mg/kg, route oral; settings: in vivo
[13] = Volume of distribution in dog at 0.5 mg/kg, iv; type: ADME, organism-based, Canis lupus familiaris; settings: in vivo
[14] = biological target: T2, Metabotropic glutamate receptor 1 (Homo sapiens, UniProt Q13255); test: Agonist activity at recombinant human mGlu1 expressed in hamster AV12 cells expressing EAAT1 assessed as increase in intracellular calcium level measured after 24 hrs by FLIPR assay; type: functional, cell-based
Cytochrome P450 2D6 = Cytochrome P450 2D6 (Homo sapiens, UniProt P10635); test: Inhibition of CYP2D6 (unknown origin); type: ADME
[15] = biological target: T3, Metabotropic glutamate receptor 3 (Homo sapiens, UniProt Q14832); test: Positive allosteric modulation of recombinant human mGlu3 expressed in hamster AV12 cells expressing EAAT1 assessed as potentiation of glutamate-induced intracellular Ca2+ level measured after 24 hrs by FLIPR assay; type: functional, cell-based
[16] = Half life in dog at 1 mg/kg, po; type: ADME, organism-based, Canis lupus familiaris; settings: in vivo
[17] = biological target: 5-hydroxytryptamine receptor 1F (Homo sapiens, UniProt P30939); test: Activity at human 5HT1F receptor
[18] = biological target: 5-hydroxytryptamine receptor 6 (Homo sapiens, UniProt P50406); test: Displacement of [3H]LSD from human 5HT6 receptor expressed in CHO cells after 120 mins by scintillation counting method; type: cell-based
[19] = Cmax in dog at 1 mg/kg, po; type: ADME, organism-based, Canis lupus familiaris; design: dose 1 mg/kg, route oral; settings: in vivo
[20] = Oral bioavailability in dog at 1 mg/kg; type: ADME, organism-based, Canis lupus familiaris; settings: in vivo
[21] = biological target: 5-hydroxytryptamine receptor 1A (Homo sapiens, UniProt P08908); test: Activity at human 5HT1A receptor
[22] = biological target: T3, Metabotropic glutamate receptor 3; test: Agonist activity at recombinant human mGlu3 expressed in hamster AV12 cells expressing EAAT1 assessed as increase in intracellular calcium level measured after 24 hrs by FLIPR assay; type: functional, cell-based
Cytochrome P450 3A4 = Cytochrome P450 3A4 (Homo sapiens, UniProt P08684); test: Inhibition of CYP3A4 (unknown origin); type: ADME
[23] = Half life in dog at 0.5 mg/kg, iv; type: ADME, organism-based, Canis lupus familiaris; settings: in vivo
[24] = biological target: T2, Metabotropic glutamate receptor 1; test: Positive allosteric modulation of recombinant human mGlu1 expressed in hamster AV12 cells expressing EAAT1 assessed as potentiation of glutamate-induced intracellular Ca2+ level measured after 24 hrs by FLIPR assay; type: functional, cell-based
Rattus norvegicus [25] = species: Rattus norvegicus; test: Displacement of [3H]naloxone from opioid receptor in rat cerebral cortex at 10 uM measured after 40 mins by scintillation counting method
Cytochrome P450 2C9 = Cytochrome P450 2C9 (Homo sapiens, UniProt P11712); test: Inhibition of CYP2C9 (unknown origin); type: ADME
[26] = Ratio of Cmax in rat to EC50 for human CysLT1 expressed in Syrian hamster AV12-664 cells
hERG (KCNH2) = hERG (KCNH2) (Homo sapiens, UniProt Q12809); test: Displacement of [3H]dofetilide from recombinant human ERG expressed in HEK293 cells measured after 60 mins by scintillation counting method; type: cell-based; settings: HEK293 cells expressing recombinant human ERG, probe [3H]dofetilide
[27] = biological target: T4, Metabotropic glutamate receptor 2 (Homo sapiens, UniProt Q14416); test: Antagonist activity at recombinant human mGlu2 receptor expressed in hamster AV12 cells expressing EAAT1 assessed as inhibition of glutamate-induced increase in intracellular Ca2+ level measured after 24 to 48 hrs by FLIPR assay; type: functional, cell-based
[28] = biological target: Histamine H2 receptor (Homo sapiens) (UniProt P25021); test: Displacement of [125I]APT from recombinant human histamine H2 receptor expressed in HEK293 cells at 10 uM measured after 120 mins by scintillation counting method; type: cell-based
[29] = biological target: T1, Metabotropic glutamate receptor 5; test: Positive allosteric modulation of recombinant human mGlu5 expressed in hamster AV12 cells expressing EAAT1 assessed as potentiation of glutamate-induced intracellular Ca2+ level measured after 24 hrs by FLIPR assay; type: functional, cell-based
[30] = Ratio of Cmax in rat to EC50 for human mGlu2 receptor expressed in hamster AV12 cells expressing EAAT1
[31] = Clearance in dog at 0.5 mg/kg, iv; type: ADME, organism-based, Canis lupus familiaris; settings: in vivo
[32] = biological target: 5-hydroxytryptamine receptor 2B (Homo sapiens, UniProt P41595); test: Activity at human 5T2B receptor
[33] = biological target: Histamine H1 receptor (Homo sapiens) (UniProt P35367); test: Displacement of [3H]pyrilamine from recombinant human histamine H1 receptor expressed in HEK293 cells at 10 uM measured after 60 mins by scintillation counting method; type: cell-based
[34] = biological target: T4, Metabotropic glutamate receptor 2; test: Agonist activity at recombinant human mGlu2 receptor expressed in hamster AV12 cells expressing EAAT1 assessed as increase in intracellular calcium level measured after 24 to 48 hrs by FLIPR assay; type: functional, cell-based
Rattus norvegicus [35] = species: Rattus norvegicus; test: Displacement of [3H]D888 from L-type calcium channel verapamil binding site in rat cerebral cortex at 10 uM measured after 120 mins by scintillation counting method
[36] = biological target: T3, Metabotropic glutamate receptor 3; test: Antagonist activity at recombinant human mGlu3 receptor expressed in hamster AV12 cells expressing EAAT1 assessed as inhibition of glutamate-induced intracellular Ca2+ level measured after 24 hrs by FLIPR assay; type: functional, cell-based
Rattus norvegicus [37] = species: Rattus norvegicus; test: Displacement of [3H]GABA from non-selective GABA channel in rat cerebral cortex at 10 uM measured after 60 mins by scintillation counting method
[38] = biological target: 5-hydroxytryptamine receptor 7 (Homo sapiens, UniProt P34969); test: Displacement of [3H]LSD from human 5HT7 receptor expressed in CHO cells after 120 mins by scintillation counting method; type: cell-based
[39] = Half life in rat at 1 mg/kg, po; type: ADME, organism-based; settings: in vivo

T3 sequence (Q14832 whole entry): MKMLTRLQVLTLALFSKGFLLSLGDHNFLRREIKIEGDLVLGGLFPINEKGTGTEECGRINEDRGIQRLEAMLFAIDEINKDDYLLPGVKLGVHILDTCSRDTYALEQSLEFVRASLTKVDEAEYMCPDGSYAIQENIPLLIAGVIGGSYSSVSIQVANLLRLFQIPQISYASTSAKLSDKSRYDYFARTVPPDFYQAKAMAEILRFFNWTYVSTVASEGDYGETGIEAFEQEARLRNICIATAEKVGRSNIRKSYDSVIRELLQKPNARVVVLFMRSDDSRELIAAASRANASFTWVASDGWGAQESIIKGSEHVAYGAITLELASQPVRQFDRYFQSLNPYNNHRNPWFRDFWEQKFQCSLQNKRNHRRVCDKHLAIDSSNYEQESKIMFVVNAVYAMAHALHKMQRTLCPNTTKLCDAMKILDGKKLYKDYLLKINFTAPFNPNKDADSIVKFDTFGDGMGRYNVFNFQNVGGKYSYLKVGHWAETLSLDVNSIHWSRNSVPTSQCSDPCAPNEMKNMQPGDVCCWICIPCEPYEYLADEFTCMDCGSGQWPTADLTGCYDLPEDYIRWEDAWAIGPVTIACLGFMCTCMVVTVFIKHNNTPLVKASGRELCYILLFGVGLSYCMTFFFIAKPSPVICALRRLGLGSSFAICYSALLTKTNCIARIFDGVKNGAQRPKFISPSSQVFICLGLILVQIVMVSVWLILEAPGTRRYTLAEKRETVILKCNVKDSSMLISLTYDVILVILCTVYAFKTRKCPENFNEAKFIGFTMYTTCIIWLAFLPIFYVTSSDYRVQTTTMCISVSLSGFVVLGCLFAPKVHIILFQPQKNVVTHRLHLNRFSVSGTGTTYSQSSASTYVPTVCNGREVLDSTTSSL
T4 sequence (Q14416 whole entry): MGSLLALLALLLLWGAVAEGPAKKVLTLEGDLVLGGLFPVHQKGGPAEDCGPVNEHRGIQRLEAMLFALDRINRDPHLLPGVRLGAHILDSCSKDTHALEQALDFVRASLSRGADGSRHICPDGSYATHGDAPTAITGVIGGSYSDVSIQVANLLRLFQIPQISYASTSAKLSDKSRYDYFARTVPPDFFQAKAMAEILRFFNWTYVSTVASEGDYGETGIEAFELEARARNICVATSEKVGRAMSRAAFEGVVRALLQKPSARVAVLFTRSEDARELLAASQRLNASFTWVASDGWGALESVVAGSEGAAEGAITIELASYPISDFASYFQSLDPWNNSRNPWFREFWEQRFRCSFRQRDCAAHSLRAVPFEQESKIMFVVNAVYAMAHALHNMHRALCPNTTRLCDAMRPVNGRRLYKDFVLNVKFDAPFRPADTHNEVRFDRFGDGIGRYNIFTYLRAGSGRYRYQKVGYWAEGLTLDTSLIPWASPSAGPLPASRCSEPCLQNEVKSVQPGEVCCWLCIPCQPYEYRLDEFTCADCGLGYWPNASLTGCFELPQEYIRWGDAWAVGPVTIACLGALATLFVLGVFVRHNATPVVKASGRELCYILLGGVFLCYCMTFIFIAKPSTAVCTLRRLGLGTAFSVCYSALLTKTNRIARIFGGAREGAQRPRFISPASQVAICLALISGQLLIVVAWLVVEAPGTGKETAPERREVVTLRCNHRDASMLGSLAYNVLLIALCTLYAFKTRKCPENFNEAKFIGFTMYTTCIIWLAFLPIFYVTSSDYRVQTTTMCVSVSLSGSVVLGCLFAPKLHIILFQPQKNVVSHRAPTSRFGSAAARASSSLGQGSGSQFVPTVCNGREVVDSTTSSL
T2 sequence (Q13255 whole entry): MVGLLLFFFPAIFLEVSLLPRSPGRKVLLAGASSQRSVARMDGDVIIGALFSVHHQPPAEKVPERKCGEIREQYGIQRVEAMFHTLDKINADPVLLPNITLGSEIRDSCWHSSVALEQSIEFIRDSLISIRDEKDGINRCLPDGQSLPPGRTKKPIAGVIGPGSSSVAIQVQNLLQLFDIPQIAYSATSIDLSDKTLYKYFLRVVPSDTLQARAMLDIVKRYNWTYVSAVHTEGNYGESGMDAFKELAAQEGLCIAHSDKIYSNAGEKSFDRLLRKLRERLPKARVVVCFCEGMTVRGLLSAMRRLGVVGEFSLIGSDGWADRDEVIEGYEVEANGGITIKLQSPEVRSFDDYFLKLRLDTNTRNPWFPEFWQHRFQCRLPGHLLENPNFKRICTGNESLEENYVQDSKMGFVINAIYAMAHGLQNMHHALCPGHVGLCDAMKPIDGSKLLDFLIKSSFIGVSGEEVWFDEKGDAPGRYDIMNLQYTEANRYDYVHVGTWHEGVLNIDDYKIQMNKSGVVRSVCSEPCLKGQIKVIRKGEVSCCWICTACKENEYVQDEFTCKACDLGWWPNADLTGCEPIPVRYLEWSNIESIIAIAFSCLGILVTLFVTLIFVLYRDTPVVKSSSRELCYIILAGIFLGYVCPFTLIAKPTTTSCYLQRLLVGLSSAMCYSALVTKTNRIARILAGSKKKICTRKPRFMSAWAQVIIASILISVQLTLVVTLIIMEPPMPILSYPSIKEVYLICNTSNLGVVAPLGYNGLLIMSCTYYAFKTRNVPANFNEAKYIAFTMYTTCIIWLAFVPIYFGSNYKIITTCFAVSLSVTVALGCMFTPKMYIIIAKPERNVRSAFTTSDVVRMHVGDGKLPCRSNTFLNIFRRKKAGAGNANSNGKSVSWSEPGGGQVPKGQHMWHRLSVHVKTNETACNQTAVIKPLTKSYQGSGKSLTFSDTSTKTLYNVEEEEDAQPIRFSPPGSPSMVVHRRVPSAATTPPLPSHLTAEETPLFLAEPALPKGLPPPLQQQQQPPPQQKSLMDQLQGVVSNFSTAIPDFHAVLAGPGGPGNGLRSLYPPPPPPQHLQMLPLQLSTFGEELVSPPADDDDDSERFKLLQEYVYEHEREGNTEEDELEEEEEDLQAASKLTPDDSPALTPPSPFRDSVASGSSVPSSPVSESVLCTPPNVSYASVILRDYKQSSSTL
T1 sequence (P41594 whole entry): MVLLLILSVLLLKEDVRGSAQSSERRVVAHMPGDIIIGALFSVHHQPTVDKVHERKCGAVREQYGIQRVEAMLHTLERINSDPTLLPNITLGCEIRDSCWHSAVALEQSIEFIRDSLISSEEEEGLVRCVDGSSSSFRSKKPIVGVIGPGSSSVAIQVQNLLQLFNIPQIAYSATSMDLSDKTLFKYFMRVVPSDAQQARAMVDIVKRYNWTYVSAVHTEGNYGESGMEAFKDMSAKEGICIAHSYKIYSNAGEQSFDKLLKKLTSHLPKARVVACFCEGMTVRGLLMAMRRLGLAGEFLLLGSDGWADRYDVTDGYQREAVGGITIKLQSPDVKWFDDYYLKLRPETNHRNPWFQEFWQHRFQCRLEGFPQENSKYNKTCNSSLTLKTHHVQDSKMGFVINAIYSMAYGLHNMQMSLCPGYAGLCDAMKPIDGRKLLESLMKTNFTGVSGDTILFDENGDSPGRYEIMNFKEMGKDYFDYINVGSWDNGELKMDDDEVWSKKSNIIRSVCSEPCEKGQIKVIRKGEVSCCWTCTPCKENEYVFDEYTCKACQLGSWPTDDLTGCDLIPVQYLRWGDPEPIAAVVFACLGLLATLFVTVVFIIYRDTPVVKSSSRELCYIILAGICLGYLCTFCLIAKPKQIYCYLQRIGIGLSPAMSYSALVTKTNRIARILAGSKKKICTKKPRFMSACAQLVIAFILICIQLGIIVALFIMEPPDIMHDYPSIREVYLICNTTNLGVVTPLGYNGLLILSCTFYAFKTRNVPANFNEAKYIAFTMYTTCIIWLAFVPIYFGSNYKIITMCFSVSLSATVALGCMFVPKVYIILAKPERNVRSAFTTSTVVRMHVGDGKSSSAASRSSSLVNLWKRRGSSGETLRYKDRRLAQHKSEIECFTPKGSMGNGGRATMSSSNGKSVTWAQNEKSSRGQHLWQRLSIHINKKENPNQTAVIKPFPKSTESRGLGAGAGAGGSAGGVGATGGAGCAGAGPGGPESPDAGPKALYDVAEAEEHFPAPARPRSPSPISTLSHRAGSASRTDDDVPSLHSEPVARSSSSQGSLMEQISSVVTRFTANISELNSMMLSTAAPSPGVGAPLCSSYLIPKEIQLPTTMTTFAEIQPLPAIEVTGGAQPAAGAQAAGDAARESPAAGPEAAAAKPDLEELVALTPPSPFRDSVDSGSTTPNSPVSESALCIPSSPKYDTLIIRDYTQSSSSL
Sequence of 5-hydroxytryptamine receptor 6 (P50406 whole entry): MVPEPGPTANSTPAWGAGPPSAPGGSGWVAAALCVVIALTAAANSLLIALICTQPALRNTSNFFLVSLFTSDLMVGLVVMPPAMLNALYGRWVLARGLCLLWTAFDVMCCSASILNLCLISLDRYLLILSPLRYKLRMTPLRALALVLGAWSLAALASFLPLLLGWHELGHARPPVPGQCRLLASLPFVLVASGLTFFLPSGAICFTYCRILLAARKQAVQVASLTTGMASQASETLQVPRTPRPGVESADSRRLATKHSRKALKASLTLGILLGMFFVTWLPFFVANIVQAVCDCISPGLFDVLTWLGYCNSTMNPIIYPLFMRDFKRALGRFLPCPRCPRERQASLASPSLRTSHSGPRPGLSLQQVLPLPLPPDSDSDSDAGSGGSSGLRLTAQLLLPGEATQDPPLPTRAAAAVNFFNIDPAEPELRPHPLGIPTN
Sequence of 5-hydroxytryptamine receptor 1D (P28221 whole entry): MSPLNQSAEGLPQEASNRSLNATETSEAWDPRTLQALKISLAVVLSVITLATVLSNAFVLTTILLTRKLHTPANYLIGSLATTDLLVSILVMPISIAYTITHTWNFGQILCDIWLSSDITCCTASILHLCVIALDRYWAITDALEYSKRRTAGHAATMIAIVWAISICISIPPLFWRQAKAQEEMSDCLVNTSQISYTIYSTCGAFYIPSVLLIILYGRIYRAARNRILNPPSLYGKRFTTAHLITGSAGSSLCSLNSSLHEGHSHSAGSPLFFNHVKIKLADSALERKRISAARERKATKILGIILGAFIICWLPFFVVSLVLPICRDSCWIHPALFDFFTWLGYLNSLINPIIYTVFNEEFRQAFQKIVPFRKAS

## CC(=O)c1ccc(OCc2ccc(Oc3cc(-c4nn[nH]n4)ccn3)cc2)c(C)c1O
[1]
  Vd: 2 L/kg
[2]
  clearance: 11 mL/min/kg
[3]
  inhibition: 5.1%
[4]
  Cmax: 2540 ng/mL
[5]
  Ki: > 7.87 µM
[6]
  Ki: > 2.4 µM
[7]
  Ki: > 3.58 µM
[8]
  Tmax: 2.5 h
[9]
  inhibition: -4.5%
[10]
  Ki: > 5.37 µM
[11]
  EC50: > 25 µM
[12]
  Cmax: 78 ng/mL
[13]
  Vd: 2 L/kg
[14]
  EC50: > 25 µM
Cytochrome P450 2D6
  INH: > 40 µM
[15]
  EC50: > 12.5 µM
[16]
  half-life: 1 h
[17]
  Ki: > 2.97 µM
[18]
  Ki: > 1.79 µM
[19]
  Cmax: 143 ng/mL
[20]
  bioavailability: 32%
[21]
  Ki: > 3.02 µM
[22]
  EC50: > 25 µM
Cytochrome P450 3A4
  INH: > 40 µM
[23]
  half-life: 2 h
[24]
  EC50: > 12.5 µM
Rattus norvegicus [25]
  inhibition: 15.1%
Cytochrome P450 2C9
  INH: > 40 µM
[26]
  Ratio: 7.8
hERG (KCNH2)
  inhibition at 1 h: < 15%
[27]
  IC50: > 12.5 µM
[28]
  inhibition: 10.2%
[29]
  EC50: > 12.5 µM
[30]
  Ratio: 0.65
[31]
  clearance: 12 mL/min/kg
[32]
  Ki: > 3.3 µM
[33]
  inhibition: 0.7%
[34]
  EC50: > 25 µM
Rattus norvegicus [35]
  inhibition: 63.1%
[36]
  IC50: > 12.5 µM
Rattus norvegicus [37]
  inhibition: -6%
[38]
  Ki: > 3.98 µM
[39]
  half-life: 8 h

Source: ChEMBL document CHEMBL3872247, “Discovery of dual positive allosteric modulators (PAMs) of the metabotropic glutamate 2 receptor and CysLT1 antagonists for treating migraine headache” (Bioorg Med Chem Lett, 2017)
